Test results as given in patent US10023570B2 (Array BioPharma, Inc., priority 2015, dated 2018).
pIC50: −log10 of the molar value. Where “and” joins values, the source holds several entries; their conditions need not be identical. Equal values may be shown once. Where a name gives a salt, the structure may show the parent alone.

Biological target: human KDR protein in HEK-293 cells (Homo sapiens (Human), UniProt P35968)
Experiment: KDR Cell Assay (phospho-KDR in HEK-293 cells expressing inducible KDR)
Assay type: cell-based
Details: pKDR Cell HEK 10% FBS IC50, HEK-293 cells expressing inducible KDR, VEGF stimulated
Outline: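 HEK-293 cells with inducible human KDR were treated with compound for 1 h in DMEM (0.25% DMSO final), then lysed. Phospho-KDR was quantified by Meso Scale immunoassay, expressed as percent of control, and IC50 taken where a 4-parameter logistic fit crossed 50 POC.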

Sequence of human KDR protein in HEK-293 cells (P35968 20-1356): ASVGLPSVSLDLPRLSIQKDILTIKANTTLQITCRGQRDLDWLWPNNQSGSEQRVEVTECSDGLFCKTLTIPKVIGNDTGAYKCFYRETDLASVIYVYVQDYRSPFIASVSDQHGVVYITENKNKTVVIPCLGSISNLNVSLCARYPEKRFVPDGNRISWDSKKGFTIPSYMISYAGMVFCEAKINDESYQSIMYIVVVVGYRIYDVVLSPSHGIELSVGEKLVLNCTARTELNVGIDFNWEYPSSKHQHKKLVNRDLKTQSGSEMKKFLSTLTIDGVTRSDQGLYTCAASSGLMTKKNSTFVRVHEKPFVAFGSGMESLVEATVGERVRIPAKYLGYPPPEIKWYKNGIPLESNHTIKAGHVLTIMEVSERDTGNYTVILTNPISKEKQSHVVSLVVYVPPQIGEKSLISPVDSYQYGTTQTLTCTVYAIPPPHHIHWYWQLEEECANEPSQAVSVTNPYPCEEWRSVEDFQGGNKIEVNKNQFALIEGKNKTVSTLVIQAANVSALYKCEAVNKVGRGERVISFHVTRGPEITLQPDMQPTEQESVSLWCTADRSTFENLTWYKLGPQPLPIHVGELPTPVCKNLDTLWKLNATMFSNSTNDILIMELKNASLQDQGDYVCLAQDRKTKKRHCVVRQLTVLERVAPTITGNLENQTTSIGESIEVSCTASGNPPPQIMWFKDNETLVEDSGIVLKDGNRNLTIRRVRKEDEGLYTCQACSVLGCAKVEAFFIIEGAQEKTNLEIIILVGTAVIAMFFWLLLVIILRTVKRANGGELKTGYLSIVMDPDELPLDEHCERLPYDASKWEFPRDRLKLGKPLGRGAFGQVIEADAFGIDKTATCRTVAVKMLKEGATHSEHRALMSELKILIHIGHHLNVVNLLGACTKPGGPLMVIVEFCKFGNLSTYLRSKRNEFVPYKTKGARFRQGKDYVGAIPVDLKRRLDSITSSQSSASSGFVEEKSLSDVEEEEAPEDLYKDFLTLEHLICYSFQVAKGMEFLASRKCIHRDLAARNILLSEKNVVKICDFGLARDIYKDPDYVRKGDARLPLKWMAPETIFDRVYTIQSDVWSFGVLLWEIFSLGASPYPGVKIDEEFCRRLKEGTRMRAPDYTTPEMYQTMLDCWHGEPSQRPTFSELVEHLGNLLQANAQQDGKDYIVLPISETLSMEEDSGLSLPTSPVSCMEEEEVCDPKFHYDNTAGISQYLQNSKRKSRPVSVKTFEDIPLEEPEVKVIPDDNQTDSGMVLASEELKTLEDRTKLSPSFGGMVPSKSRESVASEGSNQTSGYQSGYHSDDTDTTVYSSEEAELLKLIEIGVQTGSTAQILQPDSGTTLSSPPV

Question: `Cn1cc(-c2cc(-c3ccc(N4CCCC5(CCNCC5)C4)nc3)c3c(C#N)cnn3c2)cn1` [Example 540, 4-(6-(2,9-diazaspiro[5.5]undecan-2-yl)pyridin-3-yl)-6-(1-methyl-1H-pyrazol-4-yl)pyrazolo[1,5-a]pyridine-3-carbonitrile dihydrochloride] was tested. Which pIC50 did it give?
Answer: 5.91

Question: How did the pIC50 turn out when `COc1ccc(Cn2cc(-c3cc(-c4ccc(N5CCNCC5)nc4)c4c(C#N)cnn4c3)cn2)cc1` [Example 590, 6-(1-(4-methoxybenzyl)-1H-pyrazol-4-yl)-4-(6-(piperazin-1-yl)pyridin-3-yl)pyrazolo[1,5-a]pyridine-3-carbonitrile] was run?
Answer: 5.83

Question: `CCC1CCN(C(=O)N2CCN(c3ccc(-c4cc(-c5cnn(C)c5)cn5ncc(C#N)c45)cn3)CC2)C1` (stereo not shown) [Example 389, 4-(6-(4-(3-ethylpyrrolidine-1-carbonyl)piperazin-1-yl)pyridin-3-yl)-6-(1-methyl-1H-pyrazol-4-yl)pyrazolo[1,5-a]pyridine-3-carbonitrile] was tested. Which pIC50 did it give?
Answer: 6.07

Question: `Cc1cc(-c2cc(-c3ccc(N4CCN(Cc5ccccc5)CC4)nc3)c3c(C#N)cnn3c2)on1` [Example 629, 4-(6-(4-benzylpiperazin-1-yl)pyridine-3-yl)-6-(3-methylisoxazol-5-yl)pyrazolo[1,5-a]pyridine-3-carbonitrile] was tested. Which pIC50 did it give?
Answer: ≤ 5.30

Question: With `Cn1cc(-c2cc(-c3ccc(N4CCC(O)(C(F)(F)F)C4)nc3)c3c(C#N)cnn3c2)cn1` (stereo not shown) [Example 531, 4-(6-(3-hydroxy-3-(trifluoromethyl)pyrrolidin-1-yl)pyridin-3-yl)-6-(1-methyl-1H-pyrazol-4-yl)pyrazolo[1,5-a]pyridine-3-carbonitrile 2,2,2-trifluoroacetate] as the compound, how does the pIC50 read?
Answer: 6.16

Question: `Cn1cc(-c2cc(-c3ccc(N4CCC5(CC4)CCN5C(=O)OC(C)(C)C)nc3)c3c(C#N)cnn3c2)cn1` [Example 515, tert-butyl 7-(5-(3-cyano-6-(1-methyl-1H-pyrazol-4-yl)pyrazolo[1,5-a]pyridin-4-yl)pyridin-2-yl)-1,7-diazaspiro[3.5]nonane-1-carboxylate] was tested. Which pIC50 did it give?
Answer: 6.55

Question: How did the pIC50 turn out when `Cn1cc(-c2cc(-c3ccc(N4CCC(Cc5ccc(Cl)cc5)CC4)nc3)c3c(C#N)cnn3c2)cn1` [Example 536, 4-(6-(4-(4-chlorobenzyl)piperidin-1-yl)pyridin-3-yl)-6-(1-methyl-1H-pyrazol-4-yl)pyrazolo[1,5-a]pyridine-3-carbonitrile] was run?
Answer: 6.10 and 6.18

Question: How did the pIC50 turn out when `Cn1cc(-c2cc(-c3ccc(C4CN(Cc5ccccc5)C4)nc3)c3c(C#N)cnn3c2)cn1` [Example 580, 4-(6-(1-benzylazetidin-3-yl)pyridin-3-yl)-6-(1-methyl-1H-pyrazol-4-yl)pyrazolo[1,5-a]-pyridine-3-carbonitrile] was run?
Answer: 5.91

Question: `Cn1cc(-c2cc(-c3ccc(N4CCN(CCc5ccccn5)CC4)nc3)c3c(C#N)cnn3c2)cn1` [Example 395, 6-(1-methyl-1H-pyrazol-4-yl)-4-(6-(4-(2-(pyridine-2-yl)ethyl)piperazin-1-yl)pyridin-3-yl)pyrazolo[1,5-a]pyridine-3-carbonitrile] was tested. Which pIC50 did it give?
Answer: 6.31

Question: How did the pIC50 turn out when `Cc1cnn2cc(-c3cnn(C)c3)cc(-c3ccc(N4CCN(C(=O)[C@H](O)c5ccccc5)CC4)nc3)c12` [Example 652, (R)-2-hydroxy-1-(4-(5-(3-methyl-6-(1-methyl-1H-pyrazol-4-yl)pyrazolo[1,5-a]pyridin-4-yl)pyridin-2-yl)piperazin-1-yl)-2-phenyl ethan-1-one] was run?
Answer: 5.77

Question: With `CN(C(=O)N1CCN(c2ccc(-c3cc(-c4cnn(C)c4)cn4ncc(C#N)c34)cn2)CC1)C1CC1` [Example 386, 4-(5-(3-cyano-6-(1-methyl-1H-pyrazol-4-yl)pyrazolo[1,5-a]pyridine-4-yl)pyridin-2-yl)-N-cyclopropyl-N-methylpiperazine-1-carboxamide 2,2,2-trifluoroacetate] as the compound, how does the pIC50 read?
Answer: 5.85

Question: With `Cn1cc(-c2cc(-c3ccc(N4CCN(Cc5ccc(F)cc5)CC4)nc3)c3c(C#N)cnn3c2)cn1` [Example 424, 4-(6-(4-(4-fluorobenzyl)piperazin-1-yl)pyridin-3-yl)-6-(1-methyl-1H-pyrazol-4-yl)pyrazolo[1,5-a]pyridine-3-carbonitrile] as the compound, how does the pIC50 read?
Answer: 6.20

Question: With `Cn1cc(-c2cc(-c3ccc(N4CCC5(CCN(C(=O)OC(C)(C)C)CC5)CC4)nc3)c3c(C#N)cnn3c2)cn1` [Example 511, tert-butyl 9-(5-(3-cyano-6-(1-methyl-1H-pyrazol-4-yl)pyrazolo[1,5-a]pyridin-4-yl)pyridin-2-yl)-3,9-diazaspiro[5.5]undecane-3-carboxylate] as the compound, how does the pIC50 read?
Answer: 5.98

Same assay, conditions: pKDR Cell HEK 10% FBS IC50, HEK-293 cells expressing inducible KDR, VEGF stimulated, 10% FBS

Question: With `Cn1cc(-c2cc(-c3ccc(N4CCN(C(=O)Cc5ccn(C)n5)CC4)nc3)c3c(C#N)cnn3c2)cn1` [Example 42, 4-(6-(4-(2-(1-methyl-1H-pyrazol-3-yl)acetyl)piperazin-1-yl)pyridin-3-yl)-6-(1-methyl-1H-pyrazol-4-yl)pyrazolo[1,5-a]pyridine-3-carbonitrile 2,2,2-trifluoroacetate] as the compound, how does the pIC50 read?
Answer: 6.30

Question: How did the pIC50 turn out when `Cn1cc(-c2cc(-c3ccc(N4CCN(C(=O)N[C@H]5CCOC5)CC4)nc3)c3c(C#N)cnn3c2)cn1` [Example 105, (S)-4-(5-(3-cyano-6-(1-methyl-1H-pyrazol-4-yl)pyrazolo[1,5-a]pyridin-4-yl)pyridin-2-yl)-N-(tetrahydrofuran-3-yl)piperazine-1-carboxamide] was run?
Answer: 5.94

Question: `Cn1cc(-c2cc(-c3ccc(N4CCN(C(=O)CC5CCOC5)CC4)nc3)c3c(C#N)cnn3c2)cn1` (stereo not shown) [Example 62, 6-(1-methyl-1H-pyrazol-4-yl)-4-(6-(4-(2-(tetrahydrofuran-3-yl)acetyl)piperazin-1-yl)pyridin-3-yl)pyrazolo[1,5-a]pyridine-3-carbonitrile] was tested. Which pIC50 did it give?
Answer: 5.89

Question: With `Cn1cc(-c2cc(-c3ccc(N4CCN(C(=O)C5(c6ccc(Cl)cc6)CC5)CC4)nc3)c3c(C#N)cnn3c2)cn1` [Example 341, 4-(6-(4-(1-(4-chlorophenyl)cyclopropanecarbonyl)piperazin-1-yl)pyridin-3-yl)-6-(1-methyl-1H-pyrazol-4-yl)pyrazolo[1,5-a]pyridine-3-carbonitrile] as the compound, how does the pIC50 read?
Answer: 6.62

Question: With `Cn1cc(-c2cc(-c3ccc(N4CCN(S(=O)(=O)C5CCOCC5)CC4)nc3)c3c(C#N)cnn3c2)cn1` [Example 91, 6-(1-methyl-1H-pyrazol-4-yl)-4-(6-(4-((tetrahydro-2H-pyran-4-yl)sulfonyl)piperazin-1-yl)pyridin-3-yl)pyrazolo[1,5-a]pyridine-3-carbonitrile] as the compound, how does the pIC50 read?
Answer: 7.22

Question: How did the pIC50 turn out when `Cn1cc(-c2cc(-c3ccc(N4CCC(N5CCCC5=O)CC4)nc3)c3c(C#N)cnn3c2)cn1` [Example 189, 6-(1-methyl-1H-pyrazol-4-yl)-4-(6-(4-(2-oxopyrrolidin-1-yl)piperidin-1-yl)pyridin-3-yl)pyrazolo[1,5-a]pyridine-3-carbonitrile] was run?
Answer: 6.59

Question: `Cn1cc(-c2cc(-c3ccc(N4CCN(C(=O)CC5CCOCC5)CC4)nc3)c3c(C#N)cnn3c2)cn1` [Example 76, 6-(1-methyl-1H-pyrazol-4-yl)-4-(6-(4-(2-(tetrahydro-2H-pyran-4-yl)acetyl)piperazin-1-yl)pyridin-3-yl)pyrazolo[1,5-a]pyridine-3-carbonitrile] was tested. Which pIC50 did it give?
Answer: 6.00

Question: How did the pIC50 turn out when `Cn1cc(-c2cc(-c3ccc(N4CCN(C(=O)N5CCC(F)(F)CC5)CC4)nc3)c3c(C#N)cnn3c2)cn1` [Example 115, 4-(6-(4-(4,4-difluoropiperidine-1-carbonyl)piperazin-1-yl)pyridin-3-yl)-6-(1-methyl-1H-pyrazol-4-yl)pyrazolo[1,5-a]pyridine-3-carbonitrile] was run?
Answer: 5.50

Question: `Cn1cc(-c2cc(-c3ccc(C4CCNCC4)cc3)c3c(C#N)cnn3c2)cn1` [Example 301, 6-(1-methyl-1H-pyrazol-4-yl)-4-(4-(piperidin-4-yl)phenyl)pyrazolo[1,5-a]pyridine-3-carbonitrile dihydrochloride] was tested. Which pIC50 did it give?
Answer: 6.80

Question: `Cn1cc(-c2cc(-c3ccc(N4CCN(C(=O)CC(C)(C)C)C5(CC5)C4)nc3)c3c(C#N)cnn3c2)cn1` [Example 169, 4-(6-(4-(3,3-dimethylbutanoyl)-4,7-diazaspiro[2.5]octan-7-yl)pyridin-3-yl)-6-(1-methyl-1H-pyrazol-4-yl)pyrazolo[1,5-a]pyridine-3-carbonitrile] was tested. Which pIC50 did it give?
Answer: 5.84

Question: With `Cn1cc(-c2cc(-c3ccc(N4CCN(S(=O)(=O)CC5CC5)CC4)nc3)c3c(C#N)cnn3c2)cn1` [Example 87, 4-(6-(4-((cyclopropylmethyl)sulfonyl)piperazin-1-yl)pyridin-3-yl)-6-(1-methyl-1H-pyrazol-4-yl)pyrazolo[1,5-a]pyridine-3-carbonitrile] as the compound, how does the pIC50 read?
Answer: 8.24

Question: `Cn1cc(-c2cc(-c3ccc(N4CCN(C(=O)OC(C)(C)C)CC4)cc3)c3c(C#N)cnn3c2)cn1` [Example 290, tert-Butyl 4-(4-(3-cyano-6-(1-methyl-1H-pyrazol-4-yl)pyrazolo[1,5-a]pyridin-4-yl)phenyl)piperazine-1-carboxylate] was tested. Which pIC50 did it give?
Answer: 5.46

Question: `Cn1cc(-c2cc(-c3ccc(N4CCNCC4)cc3)c3c(C#N)cnn3c2)cn1` [Example 291, 6-(1-methyl-1H-pyrazol-4-yl)-4-(4-(piperazin-1-yl)phenyl)pyrazolo[1,5-a]pyridine-3-carbonitrile dihydrochloride] was tested. Which pIC50 did it give?
Answer: 6.04

Question: How did the pIC50 turn out when `Cn1cc(-c2cc(-c3ccc(N4CC5CCC(C4)N5C(=O)OC(C)(C)C)nc3)c3c(C#N)cnn3c2)cn1` [Example 173, tert-butyl 3-(5-(3-cyano-6-(1-methyl-1H-pyrazol-4-yl)pyrazolo[1,5-a]pyridin-4-yl)pyridin-2-yl)-3,8-diazabicyclo[3.2.1]octane-8-carboxylate] was run?
Answer: 5.90

Question: `Cn1cc(-c2cc(-c3ccc(N4CCN(C(=O)N5CCCC5(C)C)CC4)nc3)c3c(C#N)cnn3c2)cn1` [Example 124, 4-(6-(4-(2,2-dimethylpyrrolidine-1-carbonyl)piperazin-1-yl)pyridin-3-yl)-6-(1-methyl-1H-pyrazol-4-yl)pyrazolo[1,5-a]pyridine-3-carbonitrile] was tested. Which pIC50 did it give?
Answer: 5.73
